Assay results reported in PMC5995905, “Confirmation of high-throughput screening data and novel mechanistic insights into VDR-xenobiotic interactions by orthogonal assays” (Scientific Reports, 2018).
pIC50: −log10 of the molar value. Where “and” joins values, the source holds several entries; their conditions need not be identical. Equal entries are not always repeated. Entries after “also recorded” stand apart in the source; their conditions may differ. Structures can show the parent of a compound that is named as a salt. Where two headings read alike, the source gives them in different places. One block for each compound: values may come before it.

Legend:
[1] = target: human VDR ligand-binding domain; design: method as in PMID 21543282; settings: agonist mode; Tox21 qHTS data set; * = range of values; cited from earlier work
[2] = target: T1, human VDR (Homo sapiens, UniProt P11473); assay: Transient transactivation assay (CYP24-Luc), agonist mode, HEK293T cells; settings: for Derived Efficacy (fold induction): top asymptote of Hill or Gain-Loss model, maximum response
T1 sequence (P11473 1-427): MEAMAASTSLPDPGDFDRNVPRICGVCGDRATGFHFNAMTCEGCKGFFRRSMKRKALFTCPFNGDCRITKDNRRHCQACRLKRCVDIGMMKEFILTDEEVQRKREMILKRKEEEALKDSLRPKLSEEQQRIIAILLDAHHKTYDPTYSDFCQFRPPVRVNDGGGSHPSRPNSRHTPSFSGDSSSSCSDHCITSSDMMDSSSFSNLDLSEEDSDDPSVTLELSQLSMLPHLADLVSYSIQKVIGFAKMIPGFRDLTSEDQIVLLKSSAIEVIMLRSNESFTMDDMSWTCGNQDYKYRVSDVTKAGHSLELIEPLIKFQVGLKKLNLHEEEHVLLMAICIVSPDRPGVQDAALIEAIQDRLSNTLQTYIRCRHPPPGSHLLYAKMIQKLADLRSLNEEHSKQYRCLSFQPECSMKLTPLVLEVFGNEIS

[3] = target: VDR:SRC-1 (Homo sapiens, UniProt P11473); assay: Mammalian 2-hybrid assay, recruitment of coactivator SRC-1 by VDR, Cos7 cells; settings: agonists; -RXR (empty pSG5); percentage of vitamin D3; conc. in Fig 5: ergocalciferol 60, lithocholic acid 50, calcipotriol 0.05, ethylphenol compound 40, 9 aminoacridine 50, tamoxifen citrate 20 μM
[4] = target: T2, VDR:RXR, VDR:SRC-1 and VDR:NCoR interactions (Homo sapiens, UniProt P11473); assay: Mammalian 2-hybrid assay, summary in words of VDR coregulator interactions; format: cell-based
T2 sequence (P11473 1-427): T1 sequence (P11473 1-427)

[5] = target: T1, human VDR
[6] = target: T1, human VDR; assay: Transient transactivation assay (CYP24-Luc), antagonist mode with 3 nM 1,25D3, HEK293T cells; format: cell-based
[7] = target: T3, VDR:NCoR (Homo sapiens, UniProt P11473); assay: Mammalian 2-hybrid assay, recruitment of corepressor NCoR by VDR, Cos7 cells
T3 sequence (P11473 1-427): T1 sequence (P11473 1-427)

[8] = target: human VDR ligand-binding domain; design: method as in PMID 21543282; settings: read-out: Tox21 IC 50, cited from earlier work
[9] = AC50 (μM), experimental AC50 as listed in Fig 4a, agonists
[10] = Derived AC50 (Transient transactivation assay), agonist mode, HEK293T cells, CYP24A1-Luc
[11] = agonists, orthogonal transient transactivation assay, HEK293T cells
[12] = Derived IC 50 (Transient transactivation assay)
[13] = read-out: Derived AC50 (Transient transactivation assay)
[14] = read-out: Derived IC 50 (Transient transactivation assay)
[15] = top asymptote of Hill or Gain-Loss model, maximum response
[16] = antagonist mode, Tox21 qHTS data set
[17] = antagonists, transient transactivation assay in the presence of 3 nM 1,25D3
[18] = inhibition of 3 nM 1,25D3-induced response, HEK293T cells, unit given in Fig 3 legend, read-out: Derived IC 50 (Transient transactivation assay)
[19] = experimental AC50 as listed in Fig 4a, antagonists, read-out: AC50

AC50 [2, 9]: 35.4 µM
AC50 [2, 10]: 36.8 µM
Activity [2, 11]: Active
Derived Efficacy (fold induction) [2]: 89.3748 fold induction
% Induction, pMSRC-1NR + EpSG5 [3]: 7.2%
Compound: CCc1cc(Cc2cc(CC)cc(C(C)(C)C)c2O)c(O)c(C(C)(C)C)c1 [2,2′-methylenebis(6-tert-butyl-4-ethylphenol)]
AC50 [1]: 52600 nM

AC50 [2, 10]: 13.8 µM
Activity [2, 11]: Active
Derived Efficacy (fold induction) [2]: 14.1669 fold induction
Compound: O=S(=O)(O)c1ccc2ccc(S(=O)(=O)O)cc2c1 [2,7 Naphthalene disulfonic acid]
AC50 [1]: 14500 nM

Compound: Cc1cccc2c1cc1ccc3cccc4ccc2c1c34 [7 methyl benzo (a) pyrene]
AC50 [1]: 2540 nM
pattern of VDR:coregulator interaction facilitated by the ligand [4]: Interaction between VDR:RXR only in the presence of co transfected SRC-1
Activity [2]: Active
AC50 ([2]; Derived AC50 (Transient transactivation assay)): 10.6 µM
Derived Efficacy (fold induction) [5]: 19.1624 fold induction

AC50 [2, 10]: 0.793 µM
Activity [2, 11]: Active
Derived Efficacy (fold induction) [2]: 17.3255 fold induction
Compound: Cc1cc(=O)oc2cc(N(C)C)ccc12 [7-(Dimethylamino)-4-methylcoumarin]
AC50 [1]: 2880 to 21500 nM

Compound: c1csc(-c2ccc(-c3cccs3)s2)c1 [Alpha-Terthiophene]
AC50 [1]: 15700 nM
pattern of VDR:coregulator interaction facilitated by the ligand [4]: Interaction between VDR:RXR only in the absence of full length SRC-1
AC50 [2, 10]: 0.305 µM
Activity [2, 11]: Active
Derived Efficacy (fold induction) [5]: 19.9132 fold induction

Compound: COc1cccc2c1cc([N+](=O)[O-])c1c(C(=O)O)cc3c(c12)OCO3 [Aristolochic acid]
Activity [6]: Active
Derived Efficacy (fold inhibition) [6]: 76.1807 fold inhibition
pIC50 [6, 12]: 6.09 and 6.08
Fold Change (pMNCoR + EpSG5) [7]: 25.8
pattern of change of 1,25D3 induced VDR:coregulator interaction [4]: enhanced the interaction between VDR:SRC-1 only in the absence of RXR
pIC50 [8]: 5.14

Compound: O=S(=O)(O)c1ccccc1 [Benzenesulfonic acid]
AC50 [1]: 9900 nM
pattern of VDR:coregulator interaction facilitated by the ligand [4]: did not facilitate VDR:RXR or VDR:SRC-1 interactions under any condition
Activity [2]: Active
AC50 [2, 13]: 0.772 µM
Derived Efficacy (fold induction) [2]: 13.6777 fold induction

Activity [2, 11]: Active
% Induction, pMSRC-1NR + EpSG5 [3]: 142.9%
Compound: C=C1/C(=C\C=C2/CCC[C@]3(C)[C@@H]([C@H](C)/C=C/[C@@H](O)C4CC4)CC[C@@H]23)C[C@@H](O)C[C@@H]1O [Calcipotriol, reference compound]
AC50 [1]: 0.294 nM

Compound: O=C(O)CCCc1ccc(N(CCCl)CCCl)cc1 [Chlorambucil, reference compound]
Activity [6]: Active
Derived Efficacy (fold inhibition) [6]: 68.5251 fold inhibition
pIC50 [6, 12]: 7.68
Fold Change (pMNCoR + EpSG5) [7]: 0.9
pIC50 [8]: 10.24

Compound: CCC[CH2][Sn]([Cl])([Cl])[CH2]CCC [Dibutyltin dichloride]
Activity [6]: Active
Derived Efficacy (fold inhibition) [6]: 20.5748 fold inhibition
pIC50 [6, 14]: 6.27
pattern of change of 1,25D3 induced VDR:coregulator interaction [4]: consistently attenuate recruitment VDR:RXR and VDR:SRC-1 in both the presence and absence of co-expressed coregulators
pIC50 [8]: 7.08

Compound: O=C1C(Cl)=C(Cl)C(=O)c2ccccc21 [Dichlone]
AC50 [6]: 19800 nM
Activity [6]: moderate to marked synergistic activity; also recorded: Active
Derived Efficacy (fold inhibition) [6]: 86.9798 fold inhibition
pIC50 [6, 12]: 6.62 and 6.61
Fold Change (pMNCoR + EpSG5) [7]: 1.1
Activity [2]: very weak agonist activity

Compound: O=S(=O)(O)c1ccccc1C=Cc1ccc(-c2ccc(C=Cc3ccccc3S(=O)(=O)O)cc2)cc1.[Na].[Na] [Disodium 4,4′-bis(2-sulfostyryl) biphenyl]
AC50 [1]: 18000 nM
pattern of VDR:coregulator interaction facilitated by the ligand [4]: did not facilitate VDR:RXR or VDR:SRC-1 interactions under any condition
Activity [2]: Active
AC50 [2, 13]: 0.394 µM
Derived Efficacy (fold induction) [5]: 9.4578 fold induction

Compound: C=C1CC[C@H](O)C/C1=C/C=C1\CCC[C@]2(C)[C@@H]([C@H](C)/C=C/[C@H](C)C(C)C)CC[C@@H]12 [Ergocalciferol, reference compound]
AC50 [1]: 4280 to 9020 nM

Derived Efficacy (fold inhibition) [6, 15]: 101.7383 fold inhibition
Compound: O=C([O-])c1ccccc1-c1c2ccc(=O)cc-2oc2cc([O-])ccc12.[Na+].[Na+] [Fluorescein sodium, reference compound]
pIC50 [8, 16]: 6.45

Compound: N#C/C(=C1/SCC(c2ccccc2Cl)S1)n1ccnc1 (centres unmarked) [Lanoconazole, reference compound]
AC50 [1]: 21100 nM

Activity [6, 17]: Active
Activity ([6]; antagonists, transient transactivation assay in the presence of 3 nM 1,25D3, listed as menadiol): moderate to marked synergistic activity
pIC50 [6, 18]: 5.46
AC50 ([6]; read-out: AC50): 45800 nM
Derived Efficacy (fold inhibition) [6, 15]: 101.7383 fold inhibition
Activity [2, 11]: very weak agonist activity
Compound: Cc1cc(O)c2ccccc2c1O [Menadiol, reference compound]
pIC50 [8, 16]: 6.01

AC50 [2, 10]: 0.446 µM
Activity [2, 11]: Active
Derived Efficacy (fold induction) [2]: 44.5165 fold induction
Compound: COC(=O)c1nc(Cl)c(Cl)nc1N [Methyl 3-amino-5,6-dichloropyrazine-2-carboxylate]
AC50 [1]: 8780 nM

Compound: [Au+].[C-]#N.[C-]#N.[K+] [Potassium dicyanoaurate]
Activity [6]: Active
Derived Efficacy (fold inhibition) [6]: 76.1807 fold inhibition
pIC50 [6, 14]: 7.01
pattern of change of 1,25D3 induced VDR:coregulator interaction [4]: selectively inhibited VDR:SRC-1 interactions only in the presence of full length wild type RXR
pIC50 [8]: 7.04

Activity [6, 17]: Active
AC50 [6, 19]: 668 nM
pIC50 [6, 18]: 6.26
Derived Efficacy (fold inhibition) [6, 15]: 68.3825 fold inhibition
Compound: Nc1ccc2cc3ccc(N)cc3nc2c1 [Proflavine hydrochloride]
pIC50 [8, 16]: 5.47

Compound: C[C@@H]1O[C@@H](O[C@@H]2C=C3CC[C@@H]4[C@H](CC[C@]5(C)[C@@H](c6ccc(=O)oc6)CC[C@]45O)[C@@]3(C)CC2)[C@H](O)[C@H](O)[C@H]1O [Proscillaridin, reference compound]
Activity [6]: Active
Derived Efficacy (fold inhibition) [6]: 14.1669 fold inhibition
pIC50 [6, 12]: 5.72
Fold Change (pMNCoR + EpSG5) [7]: 2.8
pattern of change of 1,25D3 induced VDR:coregulator interaction [4]: selectively inhibited VDR:SRC-1 interactions only in the presence of full length wild type RXR; also recorded: enhanced the interaction between VDR:RXR only in the presence of co transfected SRC-1
pIC50 [8]: 7.36

Compound: CC/C(=C(\c1ccccc1)c1ccc(OCCN(C)C)cc1)c1ccccc1 [Tamoxifen citrate, reference compound]
AC50 [1]: 33000 to 56000 nM

Activity [6, 17]: Active
pIC50 [6, 18]: 6.55
Derived Efficacy (fold inhibition) [6, 15]: 79.1108 fold inhibition
Compound: C[C@]1(Cn2ccnn2)[C@H](C(=O)O)N2C(=O)C[C@H]2S1(=O)=O [Tazobactam sodium, reference compound]
pIC50 [8, 16]: 5.70

Compound: CN(C)C(=S)SSC(=S)N(C)C [Thiram]
Activity [6, 17]: Active
AC50 [6, 19]: 479 nM
pIC50 [6, 18]: 6.38 and 6.37
Derived Efficacy (fold inhibition) [6, 15]: 76.1807 fold inhibition
Fold Change (pMNCoR + EpSG5) [7]: 1.7

AC50 [2, 9]: 12.2 µM
AC50 [2, 10]: 3.07 µM
Activity [2, 11]: Active
Derived Efficacy (fold induction) [2]: 14.7020 fold induction
% Induction, pMSRC-1NR + EpSG5 [3]: 0.9%
Compound: Nc1nc(N)c2nc(-c3ccccc3)c(N)nc2n1 [Triamterene, reference compound]
AC50 [1]: 5300 to 42100 nM

Compound: [OH-].c1cc[c]([Sn+]([c]2ccccc2)[c]2ccccc2)cc1 [Triphenyltin hydroxide]
Activity [6]: Active
Derived Efficacy (fold inhibition) [6]: 89.3748 fold inhibition
pIC50 [6, 14]: 7.34
pattern of change of 1,25D3 induced VDR:coregulator interaction [4]: consistently attenuate recruitment VDR:RXR and VDR:SRC-1 in both the presence and absence of co-expressed coregulators
pIC50 [8]: 7.03

Compound: Cadmium dinitrate
Activity [6]: Active
Derived Efficacy (fold inhibition) [6]: 82.6111 fold inhibition
pattern of change of 1,25D3 induced VDR:coregulator interaction [4]: enhanced recruitment of VDR:RXR and VDR:SRC-1 in both the presence and absence of co-expressed coregulators
pIC50 [8]: 6.78

Compound: Tributyltin chloride
pIC50 [8]: 6.02
